From PubChem BioAssay AID1508610 (The Scripps Research Institute Molecular Screening Center, 2020)
Activity calls are given as the source filed them. No rule for the calls is given here.

Target: G-protein coupled receptor 151 (Homo sapiens) (UniProt Q8TDV0)
Experiment: GPR151 activator potency, dose response, cell-based (AID 1508610)
Conditions: cell-based GPR151 activation reporter

Sequence of G-protein coupled receptor 151 (Homo sapiens) (Q8TDV0 whole entry, looked up): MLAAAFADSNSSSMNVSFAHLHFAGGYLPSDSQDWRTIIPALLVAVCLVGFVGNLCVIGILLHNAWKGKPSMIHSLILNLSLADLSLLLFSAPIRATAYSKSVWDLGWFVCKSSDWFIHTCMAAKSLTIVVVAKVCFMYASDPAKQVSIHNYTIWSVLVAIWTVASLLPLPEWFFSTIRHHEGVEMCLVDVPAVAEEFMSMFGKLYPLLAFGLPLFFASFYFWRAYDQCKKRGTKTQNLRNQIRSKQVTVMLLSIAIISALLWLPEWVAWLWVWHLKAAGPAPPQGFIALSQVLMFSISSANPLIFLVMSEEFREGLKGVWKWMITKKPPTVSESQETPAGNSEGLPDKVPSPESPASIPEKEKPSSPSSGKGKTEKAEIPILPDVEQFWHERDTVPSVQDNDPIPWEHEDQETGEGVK

| Structure (SMILES) | EC50 |
| --- | --- |
| COc1ccc2[nH]c(C)c(CCNCc3ccc(OC(F)(F)F)cc3)c2c1 | > 21.6 µM (inactive) |
| Cc1sc(NC(=O)c2cc3ccccc3oc2=O)nc1-c1ccc(Br)cc1 | > 18.6 µM (inactive) |
| O=S(=O)(c1ccc(-c2csc(=Nc3cccc(Cl)c3)n2CCCO)cc1)N1CCCCC1 | > 17.6 µM (inactive) |
| Cc1ccc(C(=O)NN=C2CCC(C)CC2)cc1 (stereo not drawn) | > 28 µM (inactive) |
| COc1ccc(-c2ccc(C(=O)NCCc3ccc(O)cc3)s2)cc1 | > 27.7 µM (inactive) |
| O=C(Nc1nc2cc3c(cc2s1)OCO3)C1=COCCO1 | > 27.4 µM (inactive) |
| COc1ccc(N2CCN(C3CC(=O)NC3=O)CC2)cc1 (stereo not drawn) | > 28 µM (inactive) |
| CCOc1ccccc1NC(=O)N1CCC2(CC1)OCCO2 | > 28 µM (inactive) |
| Cc1ccc2nc(NC(=O)C34CC5CC(C3)CC(n3cnc([N+](=O)[O-])n3)(C5)C4)sc2c1 | > 28 µM (inactive) |
| Cc1nc2ccccc2n1CC(=O)N1CCc2c(nc(N3CCCC3)[nH]c2=O)C1 | > 28 µM (inactive) |
| COc1ccccc1-c1nnc(NC(=O)c2ccc([N+](=O)[O-])s2)o1 | > 9.17 µM (inactive) |
| O=C(Cn1c2c(c(-c3ccccc3Cl)cc1=O)CCC2)NC1CCCC1 | > 28 µM (inactive) |
| Cc1ccc(-c2nc(-c3ccccn3)no2)cc1Cl | > 35 µM (inactive) |
| COc1ccc(-c2ccc(C(=O)NC3CC3)s2)cc1 | > 28 µM (inactive) |
| Clc1ccc(-c2nc(-c3ccccn3)no2)c(Cl)c1 | > 29.7 µM (inactive) |
| COc1ccc(OCc2cc(C(=O)N(C)Cc3ccncn3)no2)c(Cl)c1 | > 28 µM (inactive) |
| COc1cccc(NC(=O)c2cc(C3CC3)[nH]n2)c1 | > 28 µM (inactive) |
| N#C/C(=C\c1cc(Cl)ccc1O)c1nc2ccccc2[nH]1 | > 28 µM (inactive) |
| O=C1CCN(C(=O)c2ccc(-c3nc4ccccc4s3)s2)CC1 | > 29.5 µM (inactive) |
| CCCCNc1c(N2CCCC(C(=O)OCC)C2)c(=O)c1=O (stereo not drawn) | > 28 µM (inactive) |
| COc1cc(Br)ccc1OCC(=O)N/N=C/c1ccc([N+](=O)[O-])cc1 | > 28 µM (inactive) |
| COc1ccc(NC(=O)C2C3CCC(C3=C(C)C)C2C(=O)O)cc1 (stereo not drawn) | > 28 µM (inactive) |
| COc1cccc(Nc2nc(Nc3cc(C)ccc3C)nc(N3CCOCC3)n2)c1 | > 26.2 µM (inactive) |
| CCN(CC)C(=O)CN(c1ccccc1)S(=O)(=O)c1ccc(C)cc1 | > 28 µM (inactive) |
| CCCCN(CCNC(=O)Cn1ncc2c1-c1cc(C)ccc1OC2)Cc1ccco1 | > 28 µM (inactive) |

| Structure (SMILES) | EC50 |
| --- | --- |
| NC(=O)/C(=C\c1ccco1)NC(=O)c1ccccc1Br | > 28 µM (inactive) |
| OCCC1CN(Cc2ccc3nonc3c2)CCN1Cc1ccc(F)c(F)c1 (stereo not drawn) | > 28 µM (inactive) |
| CC1(C)Cc2cccc(OCC(=O)NC3=NCCS3)c2O1 | > 29.3 µM (inactive) |
| CC(C)CCN1C(=O)C(C)(C)COc2cc(NC(=O)c3ccc4c(c3)OCO4)ccc21 | > 28 µM (inactive) |
| CCN(CC)c1ccc(NC(=O)/C=C\C(=O)O)cc1 | > 28 µM (inactive) |
| Cc1ccc(-c2c(Nc3ccc(Cl)cc3)c(=O)c2=O)cc1 | > 28 µM (inactive) |
| O=C1N[C@@H](Cc2ccc(Cl)cc2)C(=O)N2CCN(C(=O)c3cc(Cl)cc(Cl)c3)C[C@H]12 | > 28 µM (inactive) |
| CCOC(=O)c1cc(S(=O)(=O)N2CCN(c3ccccc3F)CC2)cn1C | > 28 µM (inactive) |
| CCOc1ccccc1CN1CCN(Cc2cccc(OC)c2)CC1CCO (stereo not drawn) | > 28 µM (inactive) |
| Cc1ccc2c(c1)N(CC(=O)Nc1ccc(Cl)cc1)C(=O)C(C)O2 (stereo not drawn) | > 28 µM (inactive) |
| CCc1cc2c(cc3c(=O)n(CC(=O)NCc4ccccc4Br)ncn32)s1 | > 28 µM (inactive) |
| Cn1c(=O)c2c(SCCC3OCCO3)nc(C3CCCCC3)nc2n(C)c1=O | > 27.6 µM (inactive) |
| CC(=O)c1cccc(NC(=O)CC2S\C(=N/N=C/C=C/c3ccccc3)NC2=O)c1 (stereo not drawn) | > 28 µM (inactive) |
| CCCOc1ccc(NC(=O)CC2C(=O)N(c3ccc(Cl)cc3)C(=S)N2Cc2ccncc2)cc1 (stereo not drawn) | > 23.5 µM (inactive) |
| COc1cc(C2Nc3ccccc3NC3=C2C(=O)CC(c2ccc4c(c2)OCO4)C3)ccc1OC(C)=O (stereo not drawn) | > 23.3 µM (inactive) |
| O=C(O)c1ccc2nc(-c3ccccc3)[nH]c2c1 | > 26.3 µM (inactive) |
| COc1cc(Nc2ccnc(Nc3ccc(N4CCOCC4)cc3)n2)cc(OC)c1OC | > 28.2 µM (inactive) |
| O=C(CCCC(=O)N/N=C/c1cccc([N+](=O)[O-])c1)N/N=C/c1cccc([N+](=O)[O-])c1 | > 28 µM (inactive) |
| O=C(Cn1[nH]c(=O)c2ccccc2c1=O)Nc1cccnc1 | 0.00579 µM |
| O=C(/C=C/c1cccc([N+](=O)[O-])c1)NC1C2CC3CC(C2)CC1C3 (stereo not drawn) | > 34 µM (inactive) |
| CC(C)N(CCNc1nc(N2CCC(N3CCOCC3)CC2)nc2c1ncn2C1CCCCC1)C(C)C | > 29.5 µM (inactive) |
| CSc1ccc(/C=N/NC(=O)C[n+]2ccccc2)cc1 | > 28 µM (inactive) |
| CC(C)c1ccc(N(CC(=O)NCCSc2ccccc2)S(C)(=O)=O)cc1 | > 28 µM (inactive) |
| COc1cc(C2CC(=O)c3c([nH]c(C(=O)OCCSC)c3C)C2)cc(OC)c1OC (stereo not drawn) | 0.0014 µM |
| C=CCN1/C(=C\C=C2\C=Nc3ccc(Br)cc32)C=Cc2ccc(C)cc21 | > 21.9 µM (inactive) |

| Structure (SMILES) | EC50 |
| --- | --- |
| COc1ccc(CCNc2ccnc(Nc3ccc(-n4ccnc4)cc3)n2)cc1 | inactive |
| COc1ccc2nccnc2c1[N+](=O)[O-] | > 40 µM (inactive) |
| Cn1cc(CCC(=O)NC2CCN(Cc3ccccc3)CC2)c2ccccc21 | > 28 µM (inactive) |
| COc1ccccc1Cn1c(=S)[nH]c2cc(C(=O)N3CCC(C(N)=O)(N4CCCCC4)CC3)ccc2c1=O | inactive |
| CCOc1ccc(NC(=O)C(=O)NCCN2CCN(S(=O)(=O)c3ccc4ccccc4c3)CC2)cc1 | > 18.8 µM (inactive) |
| Fc1ccc(-c2cnc(N3CCC4(CC3)OCCO4)nc2)cc1 | > 28 µM (inactive) |
| C1=Nc2ccccc2SC(c2cccnc2)=C1 | > 28.2 µM (inactive) |
| COc1ccc(-c2ccc(C(N)=O)s2)cn1 | > 28.1 µM (inactive) |
| O=C(CSc1nc(NC2CCCCC2)c2ccccc2n1)c1ccc(F)cc1 | > 28.1 µM (inactive) |
| CCOC(=O)c1cnc2c(OC)cccc2c1NC1CCCCCC1 | inactive |
| C#CCN1CCc2cc(OC)c(OC)cc2C1C (stereo not drawn) | > 28 µM (inactive) |
| COc1ccc(CCN2C(=O)c3ccc(Oc4ccc(Nc5ncnc6ccccc56)cc4)cc3C2=O)cc1OC | 2.42 µM |
| COC(C(=O)NCC1CCC2(CCN(Cc3ccccc3)CC2)O1)c1ccccc1 (stereo not drawn) | > 28 µM (inactive) |
| CCN1CCc2c(sc(NC(=O)c3ccc(S(=O)(=O)N4CCCC(C)C4)cc3)c2C(=O)OC)C1 (stereo not drawn) | > 27.6 µM (inactive) |
| O=C(NCc1ccc(F)cc1)C(=O)Nc1cccc(Cl)c1 | > 28 µM (inactive) |
| COc1ccc(Cn2nccc2N)cc1OC | > 28.8 µM (inactive) |
| CCC(NS(=O)(=O)c1ccc(Cl)c([N+](=O)[O-])c1)C12CC3CC(CC(C3)C1)C2 (stereo not drawn) | > 26.9 µM (inactive) |
| Cc1ccc(S(=O)(=O)N(CC(O)Cn2nc(C)cc2C)c2cccc([N+](=O)[O-])c2)cc1 (stereo not drawn) | > 28 µM (inactive) |
| CCn1ccnc1CN1CCN(Cc2ccc(F)cc2)C(CCO)C1 (stereo not drawn) | > 28 µM (inactive) |
| CCCCCNC(=O)c1c(O)c2c([nH]c1=O)CCCC2 | > 34.1 µM (inactive) |
| COc1ccc(CCn2c(=S)[nH]c3cc(C(=O)N4CCOCC4)ccc3c2=O)cc1OC | > 22.2 µM (inactive) |
| CCN1CCN(Cc2ccc(NC(=O)Nc3ccccc3C)cc2)CC1 | > 28 µM (inactive) |
| CCSCCOC(=O)C1=C(C)NC(=O)NC1c1ccc(OC(F)(F)F)cc1 (stereo not drawn) | > 22.5 µM (inactive) |
| O=C(O)c1ccc(COc2ccc3c(c2)CCC3)o1 | > 28 µM (inactive) |
| COc1cccc(/C=C(\C#N)c2nc3ccc(C)cc3[nH]2)c1OC | > 33.2 µM (inactive) |

| Structure (SMILES) | EC50 |
| --- | --- |
| O=C(Nc1ncc([N+](=O)[O-])s1)c1ccc(Cl)cc1Cl | > 27.3 µM (inactive) |
| O=C(N1CCN(Cc2ccccc2)CC1)C(Cl)(Cl)Cl | > 28 µM (inactive) |
| O=C(Nc1nc2ccccc2[nH]1)c1ccccc1Cl | > 28.9 µM (inactive) |
| O=C(NC1CC1)c1ccc(-c2ccc(N3CCOCC3)nc2)s1 | > 27.6 µM (inactive) |
| CCOC(=O)c1cc(C)n(CCc2ccccc2)c1C | > 39.1 µM (inactive) |
| CCN(CC)c1nc(SC)nc(Cl)c1Cc1ccc(OC(C)C)cc1 | > 25.2 µM (inactive) |
| CCC(Sc1nc(NC2CCCCC2)c2ccccc2n1)C(=O)Nc1ccc2c(c1)OCO2 (stereo not drawn) | > 20.6 µM (inactive) |
| COc1ccc(-c2nnc3sc(NC(=O)C(C)C)nn23)cc1OC | > 28 µM (inactive) |
| O=C(NCSc1ccncn1)c1ccccc1 | > 41.2 µM (inactive) |
| COc1ccccc1CN[C@H]1C[C@H]2C(=O)N[C@@H](CC(C)C)C(=O)N2C1 | > 28 µM (inactive) |
| O=C(c1ccc(CNS(=O)(=O)c2ccc(Cl)cc2)cc1)N1CCCC1 | > 31.6 µM (inactive) |
| Cn1c(=O)oc2cc(S(=O)(=O)N3CCCC(C(=O)N4CCOCC4)C3)ccc21 (stereo not drawn) | > 28 µM (inactive) |
| O=C1CCCN1CCn1cnc2c(NCCOc3ccccc3)nc(N3CCc4ccccc4C3)nc21 | > 27.9 µM (inactive) |
| CC(=O)c1ccc(NC(=O)COC(=O)c2ccc3c(c2)nc(C)n3-c2ccccc2)cc1 | > 28.8 µM (inactive) |
| COc1ccc(-c2nc(Nc3ccccc3F)c3ccccc3n2)cc1OC | > 28.2 µM (inactive) |
| Cn1cccc1C(=O)OCC(=O)NC(=O)NCc1ccccc1 | > 28.4 µM (inactive) |
| COc1ccc(-c2ccc(C(=O)NCc3cccnc3)s2)cc1 | > 28.2 µM (inactive) |
| Cc1ccccc1N(CC(=O)N1CCOCC1)S(=O)(=O)c1ccc(Cl)cc1 | > 28 µM (inactive) |
| O=C(O)CCCN=C1CCc2ccccc2N1 | > 43.2 µM (inactive) |
| CC(C)CC(=O)NCC1CCC2(CCN(Cc3ccccc3F)CC2)O1 (stereo not drawn) | > 28 µM (inactive) |
| COc1cccc(/C=C/c2nc3ccccc3c(=O)[nH]2)c1O | > 32.3 µM (inactive) |
| O=C(COc1ccc(Cl)cc1Cl)Nc1ncn[nH]1 | > 28 µM (inactive) |
| Cc1cc2nc(-c3cccnc3SCC(=O)NCc3ccco3)[nH]c2cc1C | > 28 µM (inactive) |
